In PMC11239005, “Preclinical studies of RA475, a guanidine-substituted spirocyclic candidate RPN13/ADRM1 inhibitor for treatment of ovarian cancer” (PLOS ONE, 2024):
Like-named read-outs stand apart in the source and are kept apart here.

What was measured:
[1] = test system: Hep3B; assay: MTT cytotoxicity assay, Hep3B; format: cell-based; conditions: Homo sapiens, 72 h
Description: (§1) All cell lines were obtained from the American Type Culture Collection (ATCC) and cultured in the specified medium supplemented with 10% fetal bovine serum, 100 IU/mL penicillin, and 100 μg/mL streptomycin at 37°C in a humidified 5% CO2/95% air incubator. Synthesis of new compounds is described in S1 File, and >95% purity of RA475, Up284 and its analogs were confirmed by NMR and MS. To assess drug cytotoxicity, cells were seeded at 2,500 cells/well (10,000 cells/well for MM lines) in 100 μL medium in 96-well plate as triplicates and after 24 h treated with compounds for a further 72 h. To assess cytotoxicity, the cells were incubated for 2 h at 37°C according to the manufacturer’s protocol with the Thiazolyl Blue Tetrazolium Bromide (20 μL/well of 5 mg/mL stock solution in water) (Sigma, M5655) and A570 measured using a Benchmark Plus microplate spectrophotometer (BIO-RAD). IC50 was estimated using Graphpad Prism 7 software.

[2] = test system: PEA1 cells; assay: MTT cytotoxicity assay, PEA1; format: cell-based, human; conditions: for IC50: Homo sapiens, PEA1, 72 h
Description: as §1
(§2) Modifications of Up284 were sought to improve its drug-like properties without significant compromise of its activity in vivo, and several new compounds were synthesized (S1 File). Based on our prior studies of its pharmacophore, the central ring nitrogen was the most logical for addition of charged moieties, including RA475 and RA484. We also examined a change to either 3,4 spiro rings (RA477, RA479), or addition of 3-Fluoro substitutions (RA482) (S1 File). Our focus is developing iRPN13 to treat ovarian cancer resistant to standard of care drug regimens.
A wash-out experiment was performed to assess reversibility of the toxicity. PEA1 cells were treated with RA475 for 1 h before the medium was replaced with fresh culture medium, and the cells were then allowed to grow for another 71 hours (PEA1-WO). In parallel, PEA1 cells were incubated with RA475 continuously for 72 h. […] Possible reasons include slow uptake of RA475, reversible binding and neutralization by antioxidants in the medium.
(§3) To study the effect of RA475 in combination with approved therapeutics (DNA damaging agents or radiation) an MTT assay was performed using various concentrations of both drugs. Briefly PEA1 and OVCAR3 cells were each treated with drug combination (RA475 plus cisplatin) for 72 h in a checker board analysis and cell viability was measured using MTT assay. The data were analyzed and plotted using the Synergy Finder web application.

[3] = test system: OVCAR3 cells; assay: MTT cytotoxicity assay, OVCAR3; format: cell-based, human; conditions: for IC50: Homo sapiens, OVCAR-3, OVCAR3, 72 h
Description: as §1, §3

[4] = test system: SUM149; assay: MTT cytotoxicity assay, SUM149; format: cell-based; conditions: SUM149, 72 h
Description: as §1

[5] = test system: B6-Ova; assay: MTT cytotoxicity assay, B6-Ova; format: cell-based; conditions: 72 h
Description: as §1

[6] = test system: SKMEL2; assay: MTT cytotoxicity assay, SKMEL2; format: cell-based; conditions: Homo sapiens
Description: as §1

[7] = test system: 4T1; assay: MTT cytotoxicity assay, 4T1; format: cell-based; conditions: Mus musculus, 4T1, 72 h
Description: as §1

[8] = test system: ES2; assay: MTT cytotoxicity assay, ES2; format: cell-based; conditions: Homo sapiens, ES-2, ES2, 72 h
Description: as §1

[9] = test system: HeLa; assay: MTT cytotoxicity assay, HeLa; format: cell-based; conditions: Homo sapiens, 72 h
Description: as §1

[10] = test system: HCT116; assay: MTT cytotoxicity assay, HCT116; format: cell-based; conditions: Homo sapiens, HCT-116, HCT116, 72 h
Description: as §1

[11] = test system: Mouse keratinocytes; assay: MTT cytotoxicity assay, mouse keratinocytes; format: cell-based; conditions: Keratinocyte, Mouse keratinocytes (normal cells), 72 h
Description: as §1

[12] = test system: cancer lines in S1B Table; assay: MTT cytotoxicity, summary over cell line panel; format: cell-based; conditions: for IC50: 72 h, read-out: mean IC50 across all cancer lines in S1B Table
Description: as §1, §2
We elected to focus on RA475 and expanded the analysis in a larger panel of cell lines including those from common cancer types and normal tissues. […] This panel included another pair of cell lines isolated from another ovarian cancer patient with drug-resistant disease (PEO4) and pre-treatment (PEO1), and both were similarly sensitive to RA475.

[13] = GSH reactivity assay; format: physicochemical; conditions: for Average Area Ratio Normalized: with GSH divided by without GSH; for remaining at 1.5 h, 20 μM: pH 7.4
Description: Test compounds (20 μM, final organic solvent concentration 10%) were incubated with 1 mM GSH in phosphate buffer (100 mM), pH 7.4 at 37°C, shaking at 300 rpm. In the control reactions (“without GSH”), the GSH was substituted with phosphate buffer. Five time points over 1.5 h were analyzed (0, 0.33, 0.66, 1 and 1.5 h). The reactions were stopped by adding 50 μL aliquots of the reaction mixture to 9 volumes of methanol: water: formic acid (10:10:0.04) with internal standard (IS). Samples were analyzed using HPLC system coupled with a tandem mass spectrometer. Average (triplicate) area ratios were calculated. GSH reactivity was calculated taking into account the possible instability of the compound during incubation. All calculations were performed using normalized data obtained by dividing the average area ratio of the test compound incubated with GSH by the average area ratio of the test compound incubated without GSH. Natural logarithms of the results were fitted to linear regression, and half-life (t1/2) was calculated as: t1/2=ln2/-slope

[14] = target: hERG potassium channel (Homo sapiens, UniProt Q12809); assay: hERG Thallium Flux FLIPR-Based Assay
hERG potassium channel, sequence (Q12809 whole entry): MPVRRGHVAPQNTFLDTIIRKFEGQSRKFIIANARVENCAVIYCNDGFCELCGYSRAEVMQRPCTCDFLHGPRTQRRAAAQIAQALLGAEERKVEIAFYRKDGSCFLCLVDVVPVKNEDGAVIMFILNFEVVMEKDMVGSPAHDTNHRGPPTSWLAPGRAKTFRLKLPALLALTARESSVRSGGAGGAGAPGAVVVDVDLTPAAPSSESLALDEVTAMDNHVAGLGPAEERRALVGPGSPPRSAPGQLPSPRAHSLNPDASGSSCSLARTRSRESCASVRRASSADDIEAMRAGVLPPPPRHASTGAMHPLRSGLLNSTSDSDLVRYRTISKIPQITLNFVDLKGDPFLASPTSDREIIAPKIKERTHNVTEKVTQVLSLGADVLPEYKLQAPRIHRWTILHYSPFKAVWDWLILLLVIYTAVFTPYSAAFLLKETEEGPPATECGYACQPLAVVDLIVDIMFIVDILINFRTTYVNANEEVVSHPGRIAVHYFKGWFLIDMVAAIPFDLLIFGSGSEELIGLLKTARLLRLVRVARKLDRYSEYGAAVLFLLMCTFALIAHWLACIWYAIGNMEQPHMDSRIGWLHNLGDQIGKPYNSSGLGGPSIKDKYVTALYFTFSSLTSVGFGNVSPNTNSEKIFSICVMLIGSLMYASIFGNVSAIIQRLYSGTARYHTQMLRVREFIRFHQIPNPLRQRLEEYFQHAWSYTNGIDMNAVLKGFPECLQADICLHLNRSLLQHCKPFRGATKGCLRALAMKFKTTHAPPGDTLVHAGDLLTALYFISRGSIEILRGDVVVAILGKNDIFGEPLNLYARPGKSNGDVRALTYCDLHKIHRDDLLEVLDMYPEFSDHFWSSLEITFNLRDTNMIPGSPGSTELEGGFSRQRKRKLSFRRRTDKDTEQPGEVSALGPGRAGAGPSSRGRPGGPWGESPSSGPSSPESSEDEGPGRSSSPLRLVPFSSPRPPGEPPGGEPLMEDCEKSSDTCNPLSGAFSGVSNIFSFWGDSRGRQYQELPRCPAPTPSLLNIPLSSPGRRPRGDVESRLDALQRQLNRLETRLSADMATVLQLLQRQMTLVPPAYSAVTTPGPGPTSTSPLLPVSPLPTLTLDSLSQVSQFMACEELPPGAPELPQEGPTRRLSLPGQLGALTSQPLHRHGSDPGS
Description: Supplementary file pone.0305710.s008.tif: S8 Fig hERG inhibition in vitro. […] Concentration range of 0.023–50 μM (8 points, 3-fold serial dilutions) B) Dose-response curve for RA475. Concentration range of 0.045–100 μM (8 points, 3-fold serial dilutions). C) Dose-response curve for Up284. Concentration range of 0.045–100 μM (8 points, 3-fold serial dilutions). (TIF)

[15] = 0 h, 1 mM GSH, 20 μM compound, pH 7.4, 37°C
[16] = 1 mM GSH in phosphate buffer, 1.5 h, read-out: % Remaining with GSH, normalized
[17] = 1 mM GSH in phosphate buffer, 1 mM GSH, pH 7.4, 37°C, read-out: t1/2 with GSH, normalized (converted)
[18] = phosphate buffer, pH 7.4, 37°C, read-out: t1/2 w/o GSH
[19] = phosphate buffer, 1.5 h, read-out: % Remaining w/o GSH

| SMILES | IC50 [1] | IC50 [2] | IC50 [3] | IC50 [4] | IC50 [5] | IC50 [7] | IC50 [8] | IC50 [9] | IC50 [10] | IC50 [11] | IC50 [12] | time within which compound reacted with GSH [13] | Average Area Ratio with GSH [13, 15] | Average Area Ratio without GSH ([13]; 0 h, phosphate buffer) | Average Area Ratio Normalized ([13]; 0 h) | remaining at 1.5 h, 20 μM [13, 16] | half-life at 20 μM [13, 17] | Average Area Ratio with GSH ([13]; 0.33 h, 1 mM GSH) | Average Area Ratio without GSH ([13]; 0.33 h, phosphate buffer) | Average Area Ratio Normalized ([13]; 0.33 h) | other results |
| --- | --- | --- | --- | --- | --- | --- | --- | --- | --- | --- | --- | --- | --- | --- | --- | --- | --- | --- | --- | --- | --- |
| Cl.Cl.N#Cc1ccc(/C=C2/C(=O)/C(=C/c3ccc(C#N)cc3)C23CCN(C(=N)N)CC3)cc1 [RA475, 1,3-bis((E)-4-cyanobenzylidene)-2-oxo-7-azaspiro[3.5]nonane-7-carboximidamide dihydrochloride] | 997 nM | 406 nM | 190 nM | 100 nM | 70 nM | 261 nM | 160 nM | 213 nM | 430 nM | > 2500 nM | 420 nM | ≤ 30 min | 1.00E+02 | 1.00E+02 | 9.10E+01 | 8% | 12.2 min | 2.00E+01 | 9.44E+01 | 1.93E+01 | cytotoxic effect after wash-out ([2]; PEA1, RA475 1 h then fresh medium 71 h vs continuous 72 h): reduced its cytotoxic effect; synergy with cisplatin for cytotoxicity ([2]; PEA1, checker board, 72 h, Synergy Finder): mild synergy; synergy with cisplatin for cytotoxicity ([3]; OVCAR3, checker board, 72 h, Synergy Finder): mild synergy; IC50 ([6]; SK-MEL-2, 72 h): 156 nM; fold less potent than Up284 ([12]; overall, cell line panel): approximately 3 fold; Average Area Ratio with GSH ([13]; 0.66 h, 1 mM GSH): 1.02E+01; Average Area Ratio without GSH ([13]; 0.66 h, phosphate buffer): 9.60E+01; Average Area Ratio Normalized ([13]; 0.66 h): 9.62E+00; Average Area Ratio with GSH ([13]; 1 h, 1 mM GSH): 8.18E+00; Average Area Ratio without GSH ([13]; 1 h, phosphate buffer): 9.22E+01; Average Area Ratio Normalized ([13]; 1 h): 8.07E+00; Average Area Ratio with GSH ([13]; 1.5 h, 1 mM GSH): 7.92E+00; Average Area Ratio without GSH ([13]; 1.5 h, phosphate buffer): 9.03E+01; Average Area Ratio Normalized ([13]; 1.5 h): 7.98E+00; half-life at 20 μM [13, 18]: > 360 min; remaining at 1.5 h, 20 μM [13, 19]: 90%; IC50 [14]: 85800 nM |
| N#Cc1ccc(/C=C2/C(=O)/C(=C/c3ccc(C#N)cc3)C23CCNCC3)cc1 [Up284, reference compound] | 160 nM | 219 nM | 50 nM | 90 nM | 50 nM | 120 nM | 125 nM | 40 nM | 110 nM | > 2500 nM | 120 nM | ≤ 30 min | 1.00E+02 | 1.00E+02 | 8.68E+01 | 10% | 12.2 min | 1.76E+01 | 1.03E+02 | 1.48E+01 | IC50 ([6]; SK-MEL-2, SKMEL2, 72 h, MTT, read-out: IC50): 70 nM; Average Area Ratio with GSH ([13]; 0.66 h, 1 mM GSH): 1.18E+01; Average Area Ratio without GSH ([13]; 0.66 h, phosphate buffer): 1.13E+02; Average Area Ratio Normalized ([13]; 0.66 h): 9.11E+00; Average Area Ratio with GSH ([13]; 1 h, 1 mM GSH): 1.20E+01; Average Area Ratio without GSH ([13]; 1 h, phosphate buffer): 1.18E+02; Average Area Ratio Normalized ([13]; 1 h): 8.78E+00; Average Area Ratio with GSH ([13]; 1.5 h, 1 mM GSH): 1.30E+01; Average Area Ratio without GSH ([13]; 1.5 h, phosphate buffer): 1.18E+02; Average Area Ratio Normalized ([13]; 1.5 h): 9.58E+00; half-life at 20 μM [13, 18]: > 360 min; remaining at 1.5 h, 20 μM [13, 19]: 118%; IC50 [14]: 4300 nM |
